Test results as given in US9491935B2, “Animal models of neurological disorders” (Ann & Robert H. Lurie Children's Hospital of Chicago, priority 2009, dated 2016).

Key:
[1] = administered 3 hours prior to cocaine; cited from earlier work
[2] = test system: CA1 pyramidal neurons; test: IPSC recordings in CA1 pyramidal cells of hippocampal slices; type: cell-based, mouse; settings: 0.25 mM in recording ACSF; for spontaneous IPSCs (sIPSCs, mIPSCs): Evf2TS/TS and wild-type mice; for evoked IPSCs: wild-type and Evf2TS/TS mice
Experimental: Transverse hippocampal slices ([…]) were prepared from 3-5-month-old Evf2^TS/TS mice. Slices were cut in ice-cold (˜4° C.) oxygenated ACSF and then were allowed to recover for 1-2 h before being transferred to the recording chamber where they were continuously superfused with solution heated to 32-34° C. and saturated with 95% O2/5% CO2. The standard extracellular solution contained 124 mM NaCl, 3 mM KCl, 1.25 mM KH2PO4, 2.0 mM CaCl2, 1.3 mM MgCl2, 26 mM NaHCO3 and 10 mM glucose. The concentration of MgCl2 was raised to 2.0 mM and that of CaCl2 decreased to 1.4 mM in the slicing solution. […].
Somatic whole-cell recordings were obtained from CA1 pyramidal neurons under visual guidance using infrared differential interference contrast microscopy. Patch pipettes were pulled from borosilicate glass capillary tubing (A-M Systems). Internal solution for the patch pipettes contained 120 mM cesium methane sulphonate, 10 mM CsCl, 5 mM NaCl, 10 mM HEPES, 10 mM EGTA, 5 mM TEA-Cl, 4 mM Mg-ATP, 0.3 mM GTP and 5 mM QX-314 (pH 7.3-7.4), adjusted with CsOH, osmolarity 290±10 mOsm.
Voltage-clamp recordings were performed using Axopatch-200B (Axon Instruments). In all of our recordings, series resistance was <22 MΩ and was compensated at 80%. The recorded signal was low-pass filtered at 5 kHz and digitized at 10 kHz with a PCI-MIO-16E-4 board (National Instruments). All data were stored on a PC computer with custom software using C++ Builder 5.0 (Borland) and a NI DAQ 6.5 driver (National Instruments).
Evoked IPSCs were elicited at 0.1-0.07 Hz with a bipolar Pt/Ir electrode (2×25 μn) positioned on the stratum radiatum within 150 μm of the cell being recorded (Schaffer collateral-commisural fibers location site). At the beginning of each experiment, stimulus intensity was adjusted to evoke […] with amplitude of 0.4-0.2 nA. Evoked IPSCs were recorded at holding potential from −70 mV to +20 mV with 10-mV voltage steps after blocking EPSCs with a solution containing CNQX and D-AP5.
Spontaneous IPSCs were analyzed using MiniAnalysis 6.0.3 software (Synaptosoft). All events were manually selected on the basis of their kinetics. Between 250 and 450 individual events were analyzed for each cell. Post-recording analyses of evoked IPSPs were carried out using Clampfit 10 (Axon Instruments). All statistical values were evaluated with Origin 8 (MicroCal Software). Values are presented as mean±s.e.m. Statistical differences were established at P<0.05 using the Student t test, unless otherwise indicated.

C=CC(N)CCC(=O)O (centres unmarked) [GVG]
locomotor response to cocaine [1]: can attenuate locomotor response

Picrotoxin
spontaneous IPSCs (sIPSCs, mIPSCs) [2]: blocked all IPSC activity | spontaneous IPSCs (sIPSCs, mIPSCs) ([2]; listed as picrotoxin): abolished | evoked IPSCs [2]: blocked evoked IPSCs | evoked IPSCs ([2]; listed as picrotoxin): abolished
